Experiments:
Type in all cases: in vivo
[1] = test system: morningglory (Ipomoea spp.); test: Test A pre-/postemergence: morningglory
Method in brief: (§1)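 Injury was scored visually on a 0 (no effect) to 100 (complete control) scale versus untreated controls roughly ten days after treatment in the greenhouse. Compounds, formulated in surfactant-containing non-phytotoxic solvent, went on as soil-directed preemergence spray or postemergence to one- to two-leaf plants 2–10 cm tall.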

[2] = test system: ryegrass, Italian (Italian ryegrass, Lolium multiflorum); test: Test C pre-/postemergence: ryegrass, Italian
Method in brief: (§2)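 Visual injury scored 0–100 (100 = complete control) against untreated controls after 13–15 greenhouse days. Surfactant-containing solvent formulations applied either to soil after sowing (loam/sand) or over 1- to 4-leaf plants, 2–18 cm tall.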

[3] = test system: johnsongrass (Sorghum halepense); test: Test C pre-/postemergence: johnsongrass
Method in brief: as §2

[4] = test system: foxtail, giant (giant foxtail, Setaria faberii); test: Test A pre-/postemergence: foxtail, giant
Method in brief: as §1

[5] = test system: kochia (Kochia scoparia); test: Test C pre-/postemergence: kochia; details: Postemergence
Method in brief: as §2

[6] = test system: chickweed (common chickweed, Stellaria media); test: Test C postemergence: chickweed
Method in brief: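 Plants at the 1- to 4-leaf stage (2 to 18 cm tall), grown in pots of peat moss/vermiculite planting medium, received postemergence applications of the formulated test chemicals. After 13 to 15 days in a greenhouse, injury was scored visually versus controls from 0 (no effect) to 100 (complete control).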

[7] = test system: ducksalad (Heteranthera limosa); test: Test B flooded paddy: ducksalad; details: Flood, applied to paddy water at 2-leaf stage, visually evaluated after 13 to 15 days
Method in brief: (§3)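 Greenhouse assay lasting 13 to 15 days. Treatment was into water flooding pots 3 cm deep, at the 2-leaf stage, with that level sustained afterwards. Scores compare treated with control plants visually, 100 denoting complete control and 0 no effect; a dash marks no test result.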

[8] = test system: sedge, umbrella (small-flower umbrella sedge Cyperus difformis); test: Test B flooded paddy: sedge, umbrella; details: Flood, applied to paddy water at 2-leaf stage, visually evaluated after 13 to 15 days
Method in brief: as §3

[9] = test system: soybean (Glycine max); test: Test C pre-/postemergence: soybean
Method in brief: as §2

[10] = test system: corn (Zea mays); test: Test A pre-/postemergence: corn
Method in brief: as §1

[11] = test system: ragweed (common ragweed, Ambrosia elation); test: Test C pre-/postemergence: ragweed
Method in brief: as §2

[12] = Postemergence, 125 g ai/ha, 0 to 100 scale, 0 is no effect, 100 is complete control
[13] = Postemergence, 500 g ai/ha, 0 to 100 scale, 0 is no effect, 100 is complete control
[14] = Preemergence, 125 g ai/ha, 0 to 100 scale where 0 is no effect and 100 is complete control
[15] = Preemergence, 500 g ai/ha, 0 to 100 scale (0 no effect, 100 complete control)
[16] = Postemergence, 31 g ai/ha, scale 0 to 100 (0 no effect, 100 complete control)
[17] = Postemergence, 62 g ai/ha, scale 0 to 100 (0 no effect, 100 complete control)
[18] = Postemergence, 125 g ai/ha, scale 0 to 100, 0 no effect, 100 complete control
[19] = Postemergence, 250 g ai/ha, scale 0 to 100 (0 no effect, 100 complete control)
[20] = Preemergence, 31 g ai/ha, scale 0 (no effect) to 100 (complete control)
[21] = Preemergence, 62 g ai/ha, scale of 0 to 100, 0 is no effect, 100 is complete control
[22] = Preemergence, 125 g ai/ha, scale 0 to 100, 0 no effect, 100 complete control
[23] = Preemergence, 250 g ai/ha, scale 0 to 100, 0 no effect, 100 complete control
[24] = 31 g ai/ha, scale 0 to 100 (0 no effect, 100 complete control)
[25] = 62 g ai/ha, scale 0 to 100 (0 no effect, 100 complete control)
[26] = 125 g ai/ha, scale 0 to 100, 0 no effect, 100 complete control
[27] = 250 g ai/ha, scale 0 to 100 (0 no effect, 100 complete control)

**Q.** For `CCOc1nn(-c2ccc(Cl)cc2)nc1Cc1ccnc(C(F)(F)F)c1` [Compound 188], which “Plant response rating, Morningglory” value [1, 12] is on record?
**A.** Its value is 90.

**Q.** And the “Morningglory plant response rating” value [1, 13]?
**A.** The value was 100.

**Q.** What about the “Plant response rating, Morningglory” value [1, 14] of the same compound?
**A.** Its value is 20.

**Q.** And the “Plant response rating, Morningglory” value [1, 15]?
**A.** Its value is 90.

**Q.** And the “Plant response rating, Ryegrass, Italian” value [2, 16]?
**A.** The value was 50.

**Q.** What about the “Plant response rating, Ryegrass, Italian” value [2, 17] of the same compound?
**A.** Its value is 70.

**Q.** And the “Plant response rating, Ryegrass, Italian” value [2, 18]?
**A.** The value was 85.

**Q.** What about the “Plant response rating, Ryegrass, Italian” value [2, 19] of the same compound?
**A.** Its value is 90.

**Q.** And the “Plant response rating, Ryegrass, Italian” value [2, 20]?
**A.** The value was 60.

**Q.** What about the “Plant response rating, Ryegrass, Italian” value [2, 21] of the same compound?
**A.** Its value is 65.

**Q.** What about the “Plant response rating, Ryegrass, Italian” value [2, 22] of the same compound?
**A.** The value was 95.

**Q.** What about the “Plant response rating, Ryegrass, Italian” value [2, 23] of the same compound?
**A.** Its value is 98.

**Q.** What about the “Plant response rating, Johnsongrass” value [3, 16] of the same compound?
**A.** Its value is 45.

**Q.** What about the “Plant response rating, Johnsongrass” value [3, 17] of the same compound?
**A.** Its value is 75.

**Q.** What about the “Plant response rating, Johnsongrass” value [3, 18] of the same compound?
**A.** Its value is 95.

**Q.** What about the “Plant response rating, Johnsongrass” value [3, 19] of the same compound?
**A.** The value was 98.

**Q.** What about the “Plant response rating, Johnsongrass” value [3, 20] of the same compound?
**A.** Its value is 55.

**Q.** And the “Plant response rating, Johnsongrass” value [3, 21]?
**A.** The value was 85.

**Q.** What about the “Plant response rating, Johnsongrass” value [3, 22] of the same compound?
**A.** The value was 95.

**Q.** What about the “Plant response rating, Johnsongrass” value [3, 23] of the same compound?
**A.** The value was 98.

**Q.** What about the “Plant response rating, Foxtail, Giant” value [4, 12] of the same compound?
**A.** The value was 90.

**Q.** And the “Foxtail, Giant plant response rating” value [4, 13]?
**A.** Its value is 90.

**Q.** What about the “Plant response rating, Foxtail, Giant” value [4, 14] of the same compound?
**A.** The value was 100.

**Q.** What about the “Plant response rating, Foxtail, Giant” value [4, 15] of the same compound?
**A.** Its value is 100.

**Q.** What about the “Plant response rating, Kochia” value [5, 24] of the same compound?
**A.** Its value is 70.

**Q.** What about the “Plant response rating, Kochia” value [5, 25] of the same compound?
**A.** The value was 90.

**Q.** What about the “Plant response rating, Kochia” value [5, 26] of the same compound?
**A.** Its value is 90.

**Q.** What about the “Plant response rating, Kochia” value [5, 27] of the same compound?
**A.** The value was 90.

**Q.** And the “Plant response rating, Chickweed” value [6, 24]?
**A.** The value was 80.

**Q.** And the “Plant response rating, Chickweed” value [6, 25]?
**A.** Its value is 90.

**Q.** What about the “Plant response rating, Chickweed” value [6, 26] of the same compound?
**A.** The value was 90.

**Q.** What about the “Plant response rating, Chickweed” value ([6]; 250 g ai/ha, scale 0 to 100) of the same compound?
**A.** Its value is 95.

**Q.** What about the “Plant response rating, Ducksalad (0 to 100 scale, 0 is no effect, 100 is complete control)” value ([7]; 125 g ai/ha) of the same compound?
**A.** Its value is 90.

**Q.** And the “Plant response rating, Sedge, Umbrella (0 to 100 scale, 0 is no effect, 100 is complete control)” value ([8]; 125 g ai/ha)?
**A.** Its value is 100.

**Q.** And the “Plant response rating, Soybean” value [9, 16]?
**A.** The value was 40.

**Q.** What about the “Plant response rating, Soybean” value [9, 17] of the same compound?
**A.** Its value is 50.

**Q.** What about the “Plant response rating, Soybean” value [9, 18] of the same compound?
**A.** The value was 50.

**Q.** And the “Plant response rating, Soybean” value [9, 19]?
**A.** The value was 55.

**Q.** And the “Plant response rating, Soybean” value [9, 20]?
**A.** Its value is 5.

**Q.** What about the “Plant response rating, Soybean” value [9, 21] of the same compound?
**A.** Its value is 20.

**Q.** What about the “Plant response rating, Soybean” value [9, 23] of the same compound?
**A.** The value was 65.

**Q.** And the “Plant response rating, Corn” value [10, 12]?
**A.** The value was 40.

**Q.** What about the “Corn plant response rating” value [10, 13] of the same compound?
**A.** The value was 50.

**Q.** What about the “Plant response rating, Corn” value [10, 14] of the same compound?
**A.** Its value is 10.

**Q.** And the “Plant response rating, Corn” value [10, 15]?
**A.** The value was 20.

**Q.** What about the “Plant response rating, Ragweed” value [11, 16] of the same compound?
**A.** The value was 65.

**Q.** And the “Plant response rating, Ragweed” value [11, 17]?
**A.** The value was 75.

**Q.** And the “Plant response rating, Ragweed” value [11, 18]?
**A.** Its value is 85.

**Q.** And the “Plant response rating, Ragweed” value [11, 19]?
**A.** Its value is 85.

**Q.** What does the source list for `CCc1nn(-c2ccc(C(F)(F)F)cc2)nc1Oc1ccnc(C(F)(F)F)c1` [Compound 169]?
**A.** Plant response rating, Morningglory [1, 14]: 20; Plant response rating, Morningglory [1, 15]: 40; Plant response rating, Ryegrass, Italian [2, 16]: 10; Plant response rating, Ryegrass, Italian [2, 17]: 10; Plant response rating, Ryegrass, Italian [2, 18]: 25; Plant response rating, Ryegrass, Italian [2, 19]: 40; Plant response rating, Ryegrass, Italian [2, 20]: 85; Plant response rating, Ryegrass, Italian [2, 21]: 90; Plant response rating, Ryegrass, Italian [2, 22]: 90; Plant response rating, Ryegrass, Italian [2, 23]: 95; Plant response rating, Johnsongrass [3, 16]: 15; Plant response rating, Johnsongrass [3, 17]: 30; Plant response rating, Johnsongrass [3, 18]: 35; Plant response rating, Johnsongrass [3, 19]: 50; Plant response rating, Johnsongrass [3, 20]: 20; Plant response rating, Johnsongrass [3, 21]: 75; Plant response rating, Johnsongrass [3, 22]: 95; Plant response rating, Johnsongrass [3, 23]: 98; Plant response rating, Foxtail, Giant [4, 12]: 80; Foxtail, Giant plant response rating [4, 13]: 90; Plant response rating, Foxtail, Giant [4, 14]: 100; Plant response rating, Foxtail, Giant [4, 15]: 100; Plant response rating, Kochia [5, 24]: 85; Plant response rating, Kochia [5, 25]: 90; Plant response rating, Kochia [5, 26]: 90; Plant response rating, Kochia [5, 27]: 90; Plant response rating, Chickweed [6, 24]: 60; Plant response rating, Chickweed [6, 25]: 60; Plant response rating, Chickweed [6, 26]: 95; Plant response rating, Chickweed ([6]; 250 g ai/ha, scale 0 to 100): 100; Plant response rating, Ducksalad (0 to 100 scale, 0 is no effect, 100 is complete control) ([7]; 250 g ai/ha): 85; Plant response rating, Sedge, Umbrella (0 to 100 scale, 0 is no effect, 100 is complete control) ([8]; 250 g ai/ha): 85; Plant response rating, Soybean [9, 16]: 30; Plant response rating, Soybean [9, 17]: 30; Plant response rating, Soybean [9, 18]: 50; Plant response rating, Soybean [9, 19]: 55; Plant response rating, Soybean [9, 20]: 0; Plant response rating, Soybean [9, 21]: 5; Plant response rating, Soybean [9, 22]: 10; Plant response rating, Soybean [9, 23]: 30; Plant response rating, Corn [10, 12]: 10; Corn plant response rating [10, 13]: 50; Plant response rating, Corn [10, 14]: 20; Plant response rating, Corn [10, 15]: 20; Plant response rating, Ragweed [11, 16]: 40; Plant response rating, Ragweed [11, 17]: 60; Plant response rating, Ragweed [11, 18]: 85; Plant response rating, Ragweed [11, 19]: 95; Plant response rating, Ragweed [11, 20]: 15; Plant response rating, Ragweed [11, 21]: 15; Plant response rating, Ragweed [11, 22]: 30; Plant response rating, Ragweed [11, 23]: 65

From patent publication US9302999B2, “Substituted triazoles as herbicides” (E. I. DU PONT DE NEMOURS AND COMPANY, priority 2012, dated 2016)
